According to US11780893B2, “Kv1.3 blockers” (Zealand Pharma A/S, priority 2019, dated 2023):
Like-named read-outs stand apart in the source and are kept apart here. Bridge positions count the residues as written; N and C are the ends. Square brackets hold non-standard residues; d marks the D form. Peptide text beside a SMILES is read from it. Phe(4-F) = N[C@@H](Cc1ccc(F)cc1)C(=O)O; Nle = CCCC[C@H](N)C(=O)O

Experiments:
[1] = target: T1, human Kv1.3 voltage-gated K+ channel (Homo sapiens, UniProt P22001); experiment: cell-based; details: inhibition of thallium flux, CHO-DUKX cells with human Kv1.3; read-out: IC50
T1 construct: host or cells: CHO-DUKX

Rat whole blood = Rat whole blood (Rattus norvegicus, UniProt P15384)
[2] = inhibition of IL-17A release, thapsigargin, 24 Hr, at least 2 replicates

T1 sequence (P22001 whole entry): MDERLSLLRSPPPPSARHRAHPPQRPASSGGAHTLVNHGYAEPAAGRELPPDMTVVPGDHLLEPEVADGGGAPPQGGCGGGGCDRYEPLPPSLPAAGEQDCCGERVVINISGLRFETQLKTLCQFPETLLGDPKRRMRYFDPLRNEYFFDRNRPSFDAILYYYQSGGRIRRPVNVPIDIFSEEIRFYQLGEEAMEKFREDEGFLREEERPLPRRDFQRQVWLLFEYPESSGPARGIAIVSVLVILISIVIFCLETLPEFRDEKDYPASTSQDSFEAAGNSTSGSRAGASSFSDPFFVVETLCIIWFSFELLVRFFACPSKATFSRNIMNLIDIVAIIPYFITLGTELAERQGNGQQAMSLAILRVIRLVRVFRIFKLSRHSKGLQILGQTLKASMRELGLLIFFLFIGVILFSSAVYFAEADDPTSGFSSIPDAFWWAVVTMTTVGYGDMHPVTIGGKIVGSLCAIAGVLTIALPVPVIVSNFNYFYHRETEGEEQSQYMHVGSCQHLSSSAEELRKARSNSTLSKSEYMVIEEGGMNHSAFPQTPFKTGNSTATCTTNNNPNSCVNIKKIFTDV
Chain of Rat whole blood (P15384 whole entry): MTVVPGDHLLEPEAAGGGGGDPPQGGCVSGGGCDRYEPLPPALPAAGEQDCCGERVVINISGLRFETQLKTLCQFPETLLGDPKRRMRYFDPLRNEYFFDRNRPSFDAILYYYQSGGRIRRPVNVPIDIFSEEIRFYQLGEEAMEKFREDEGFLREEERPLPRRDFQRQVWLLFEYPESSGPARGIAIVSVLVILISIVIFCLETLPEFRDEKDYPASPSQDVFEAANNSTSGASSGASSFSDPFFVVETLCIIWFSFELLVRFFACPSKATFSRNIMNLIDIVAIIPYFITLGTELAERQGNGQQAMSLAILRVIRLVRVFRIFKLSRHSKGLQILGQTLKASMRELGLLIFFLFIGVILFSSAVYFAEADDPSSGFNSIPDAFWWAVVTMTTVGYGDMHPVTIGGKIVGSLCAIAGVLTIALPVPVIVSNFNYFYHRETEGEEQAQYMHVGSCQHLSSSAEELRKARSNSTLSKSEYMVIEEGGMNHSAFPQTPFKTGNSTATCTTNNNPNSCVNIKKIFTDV

Structure (SMILES): CCCC[C@H](NC(=O)[C@H](CC(=O)O)NC(=O)[C@H](CCCC)NC(=O)[C@@H](N)CO)C(=O)N[C@@H](CCCNC(=N)N)C(=O)N[C@H]1CSSC[C@@H]2NC(=O)[C@H](CCCCN)NC(=O)CNC(=O)[C@H](Cc3ccccc3)NC(=O)[C@H]([C@@H](C)CC)NC(=O)[C@H](CO)NC(=O)CNC(=O)[C@H]([C@@H](C)CC)NC(=O)[C@H](C)NC(=O)[C@H](CCCCN)NC(=O)[C@H](CC(C)C)NC(=O)[C@@H]3CSSC[C@@H](C(=O)N[C@@H](Cc4ccc(O)cc4)C(=O)N[C@@H](CCC(N)=O)C(N)=O)NC(=O)[C@H](CCCCN)NC(=O)[C@H](CSSC[C@H](NC(=O)[C@H](CCC(=O)O)NC(=O)[C@H](C(C)C)NC(=O)[C@H](CO)NC(=O)[C@H](C)NC(=O)[C@H](CO)NC1=O)C(=O)N[C@@H](CCCCN)C(=O)N[C@@H](CCC(N)=O)C(=O)N[C@@H](CCCCN)C(=O)N3)NC(=O)[C@H](CCCCN)NC(=O)[C@H](CCCCN)NC(=O)[C@H](CC(N)=O)NC(=O)[C@H](CCSC)NC2=O [Compound 74] (H-S[Nle]D[Nle]RCSASVECKQKCLKAIGSIFGKCMNKKCKCYQ-NH2; disulfide 6-27, 12-32, 16-34)
- IC50 [1]: 0.36 nM
- IC50 (Rat whole blood; [2]): 1.6 nM

Structure (SMILES): CCCC[C@H](NC(=O)[C@@H]1CCCN1)C(=O)N[C@@H](CC(=O)O)C(=O)N[C@@H](CCCC)C(=O)N[C@@H](CCCNC(=N)N)C(=O)N[C@H]1CSSC[C@@H]2NC(=O)[C@H](CCCCN)NC(=O)CNC(=O)[C@H](Cc3ccccc3)NC(=O)[C@H]([C@@H](C)CC)NC(=O)[C@@H]3CSSC[C@@H](C(=O)O)NC(=O)[C@@H]4CCCN4C(=O)[C@H](Cc4ccc(O)cc4)NC(=O)[C@@H]4CSSC[C@H](NC(=O)[C@H](CCCCN)NC(=O)[C@H](CCC(N)=O)NC(=O)[C@H](CCCCN)NC(=O)[C@H](CSSC[C@H](NC(=O)[C@H](CCCCN)NC(=O)[C@H](CCCCN)NC(=O)[C@H](CC(N)=O)NC(=O)[C@H](CCCC)NC2=O)C(=O)N[C@@H](CCCCN)C(=O)N4)NC(=O)[C@H](CCC(=O)O)NC(=O)[C@H](C(C)C)NC(=O)[C@H](CO)NC(=O)[C@H](C)NC(=O)[C@H](CO)NC1=O)C(=O)N[C@@H](CC(C)C)C(=O)N[C@@H](CCCCN)C(=O)N[C@@H](C)C(=O)N[C@@H]([C@@H](C)CC)C(=O)NCC(=O)N3 [Compound 88] (H-P[Nle]D[Nle]RCSASVECKQKCLKAIGCIFGKC[Nle]NKKCKCYPC-OH; disulfide 6-27, 12-32, 16-34, 22-37)
- IC50 [1]: 0.27 nM
- IC50 (Rat whole blood; [2]): 1.1 nM

Structure (SMILES): CCCC[C@H](NC(=O)[C@H](CC(=O)O)NC(=O)[C@H](CCCC)NC(=O)[C@@H](N)CO)C(=O)N[C@@H](CCCNC(=N)N)C(=O)N[C@H]1CSSC[C@@H]2NC(=O)[C@H](CCCCN)NC(=O)CNC(=O)[C@H](Cc3ccccc3)NC(=O)[C@H]([C@@H](C)CC)NC(=O)[C@H](CO)NC(=O)CNC(=O)[C@H]([C@@H](C)CC)NC(=O)[C@H](C)NC(=O)[C@H](CCCCN)NC(=O)[C@H](CC(C)C)NC(=O)[C@@H]3CSSC[C@@H](C(=O)N[C@@H](Cc4ccc(F)cc4)C(=O)N4CCC[C@H]4C(=O)N[C@@H](CCCNC(=N)N)C(N)=O)NC(=O)[C@H](CCCCN)NC(=O)[C@H](CSSC[C@H](NC(=O)[C@H](CCC(=O)O)NC(=O)[C@H](C(C)C)NC(=O)[C@H](CO)NC(=O)[C@H](C)NC(=O)[C@H](CO)NC1=O)C(=O)N[C@@H](CCCCN)C(=O)N[C@@H](CCC(N)=O)C(=O)N[C@@H](CCCCN)C(=O)N3)NC(=O)[C@H](CCCCN)NC(=O)[C@H](CCCCN)NC(=O)[C@H](CC(N)=O)NC(=O)[C@H](CCSC)NC2=O [Compound 91] (H-S[Nle]D[Nle]RCSASVECKQKCLKAIGSIFGKCMNKKCKC[Phe(4-F)]PR-NH2; disulfide 6-27, 12-32, 16-34)
- IC50 [1]: 0.1 nM
- IC50 (Rat whole blood): ≤ 1 nM
- IC50 (Rat whole blood; [2]): 0.34 nM
